In one experiment the test system is TuM1 module. Nature of the experiment: Gene set enrichment analysis of tumor module expression in tamoxifen treated MCF7 cells. The experiment is classed as cell-based. Conditions: 10 μM tamoxifen, harvested at 48 hrs; FDR=0.05. Here is the method:
MCF-7 breast cancer cells were obtained from American Type Culture Collection center (Manassas, Va.), and cells were cultured in Dulbecco's modified Eagle medium (DMEM) (Gibco, Grand Island, N.Y.) supplemented with 10% fetal bovine serum (FBS), 100 U/mL penicillin, 100 U/mL streptomycin, and 2 mM L-glutamine. Before tamoxifen treatment, cells were washed three times in PBS and maintained in phenol red free DMEM with 5% Dextran charcoal-stripped FBS (HyClone Laboratories, Pittsburgh, Pa.) for 24 hrs. Subsequently cells were treated with 10 μM tamoxifen (Sigma) and harvested at 48 hrs. Control sister cultures were treated with an equivalent volume of the vehicle (0.1% ethanol).
GSEA was used to ask if expression of the tumor module genes might be affected by tamoxifen treatment. Four control samples and two post-treatment samples (See Materials and Methods) were used for GSEA analysis. Three modules (TuM4, 5 and 6) were filtered out due to insufficient number of genes (<10) expressed in MCF7 cell lines.
The observation that TuM1 is expressed in a subset of ER+ tumors raises the possibility that expression of this module may depend, at least in some part, on ER activity and signaling. To investigate the relationship between TuM1 expression and ER signaling, we tested the responsiveness of TuM1 to ER activity using an in vitro system. […]

The next experiment deals with MCF-7 cells. The experiment in a line: Tamoxifen induced apoptosis, Annexin-V flow cytometry in control and RLN2 silenced MCF-7 cells. Type of experiment: cell-based. Conditions: 1 μM tamoxifen for 48 hrs, analyzed 72 hrs after withdrawal. How it is done:
FIG. 13B. Flow cytometric analysis of Tamoxifen sensitivity in RLN2 silenced MCF-7 cells: RLN2 silenced and control cells were treated with 1 μm Tamoxifen or equivalent quantity of vehicle for 48 hrs and subsequently, the treatment was withdrawn. After 72 hrs, Annexin-V staining positive cells were scored in Flow cytometry, which is a measure for tamoxifen induced apoptosis.
MCF-7 cells (ATCC) were maintained in DMEM growth media supplemented with 10% fetal bovine serum (FBS), 100 U/mL penicillin, 100 U/mL streptomycin, and 2 mM L-glutamine. […] RLN2 silenced and control cells were treated with 1 μM Tamoxifen or equivalent quantity of vehicle for 48 hrs and subsequently, the treatment was withdrawn by changing the culture media to DMEM with 5% DCC. After 72 hrs, cells were trypsinized and stained with Annexin-V-Fluorescein and propidium iodide as recommended by the manufacturer (Roche) and the analyzed in Flow cytometer (Beckman-Coulter). The population of annexin-V positive cells was scored as the representation of the percentages of apoptotic cells.
To functionally investigate the association of the TuM1 signature with a tumor's response to anti-hormonal treatment, the role of a representative TuM1 gene, Relaxin2 (RLN2) was assessed in a ER+ breast cancer cellular model. […]
On the technique in general: In flow cytometry, cells or beads pass a laser one at a time.

As for `CC/C(=C(\c1ccccc1)c1ccc(OCCN(C)C)cc1)c1ccccc1` [tamoxifen], in the experiment with TuM1 module, the “TuM1 expression in tam-treated MCF7 cells compared to controls (GSEA)” value is listed as “significantly downregulated”. Moreover, the entries for the “percentage of apoptotic (annexin-V-staining positive) cells” value in the experiment with MCF-7 cells (RLN2 silenced (siRNA) MCF-7 cells) and in the experiment with MCF-7 cells (control MCF-7 cells) were “about 23%” and “about 73%”, respectively.

These data come from patent publication US20080193938A1, “Materials And Methods Relating To Breast Cancer Classification” (priority 2005, published 2008).
